Patent US20230278981A1, “DICHLOROPHENOL HSD17B13 INHIBITORS AND USES THEREOF” (INIPHARM, INC., priority 2020, published 2023)

Target: HSD17B13 (Homo sapiens (Human), UniProt Q7Z5P4)
Assay: LC/MS estrone detection assay: conversion of estradiol to estrone by HSD17B13
Assay type: biochemical
Settings: 4 μM estradiol, 6 mM NAD+, 30 nM HSD17B13 enzyme (E. coli expressed His-tagged), 2 hours at 26.5° C.
Description: The liquid chromatography/mass spectrometry (LC/MS) estrone detection assay monitors the conversion of estradiol to estrone by HSD17B13. This assay was undertaken in a 96wp format (Eppendorf deep well Plate 96/500) in an 80 μl reaction volume containing: 4 μM of Estradiol (E2; Cayman; Ser. No. 10/006,315), 6 mM NAD+(Sigma; #N0623) and 30 nM HSD17B13 enzyme (in-house; E. coli expressed His-tagged, purified, soluble protein) in a reaction containing […] potassium phosphate buffer pH 7.4, with 0.5% vehicle (DMSO). Reactions were incubated for 2 hours at 26.5° C., and estradiol (E2) conversion to estrone (E1) was quantitated by LC-MS/MS based analyte detection for both E2 and E1 using LCMS grade reagents.
Reactions were terminated by the addition of two volumes of acetonitrile (MeCN; LCMS grade; CAS #75/05/8) containing deuterated (D4)-E1 used as internal standard (Clear Synth; #CS-T-54273; 500 ng/mL final concentration). Samples were applied to pre-prepared Bond Elut-C18 extraction cartridges (3 mL; Agilent; Ser. No. 12/102,028), washed and eluted in MeCN. Eluates were dried under nitrogen and re-suspended in 60% methanol (LCMS grade methanol; CAS #67/56/1) before submission for analysis. Aqueous linearity for E2 and E1 were included for quantification.
Analysis of samples was undertaken on a XBridge BEH C18 column (Waters; #186003033) using 0.1% Diethyl Amine in MeCN (mobile phase A; DEA CAS #109-89-7) and 0.1% Diethyl Amine in milli-Q water (mobile phase B) in a 3 min gradient allowing 25% B. Analytes were detected in negative mode using MRM analysis, with E2 having a RT of 1.85 min and E1 having a RT of 2 min. Activity of the enzyme, in the absence of NAD^+, was used to evaluate specificity of conversion. Enzyme activity in the presence of test samples was expressed as a percentage of the uninhibited enzyme activity, and plotted versus inhibitor concentration. Non-linear regression was performed using a four-parameter logistic model and GraphPad Prism software (GraphPad Software, La Jolla, Calif.). All assessments were undertaken in duplicate evaluations and pooled during extraction process and subsequently injected as duplicates for LC-MS/MS analysis.

Sequence of HSD17B13 (Q7Z5P4 20-300): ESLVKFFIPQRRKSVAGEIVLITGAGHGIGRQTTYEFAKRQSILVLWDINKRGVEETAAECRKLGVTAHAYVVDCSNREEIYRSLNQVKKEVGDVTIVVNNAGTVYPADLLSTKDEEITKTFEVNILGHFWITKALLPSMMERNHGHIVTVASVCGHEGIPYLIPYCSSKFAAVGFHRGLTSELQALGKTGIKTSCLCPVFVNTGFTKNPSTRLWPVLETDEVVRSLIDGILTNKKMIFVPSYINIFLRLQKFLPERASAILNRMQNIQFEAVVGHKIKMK

| SMILES | IC50 [nM] |
| --- | --- |
| O=C(Nc1ncsc1C(=O)NCCc1ccccc1C(F)(F)F)c1cc(Cl)c(O)c(Cl)c1 [Example 25, 4-(3,5-dichloro-4-hydroxybenzamido)-N-(2-(trifluoromethyl)phenethyl) thiazole-5-carboxamide] | 100 to 500 |
| O=C(Nc1ncsc1C(=O)NCc1ccccc1C(F)(F)F)c1cc(Cl)c(O)c(Cl)c1 [Example 26, 4-(3,5-dichloro-4-hydroxybenzamido)-N-(2-(trifluoromethyl)benzyl)thiazole-5-carboxamide] | 100 to 500 |
| O=C(Nc1ncsc1C(=O)NCc1ccccc1OC(F)(F)F)c1cc(Cl)c(O)c(Cl)c1 [Example 27, 4-(3,5-dichloro-4-hydroxybenzamido)-N-(2-(trifluoromethoxy)benzyl)thiazole-5-carboxamide] | 100 to 500 |
| O=C(Nc1ncsc1C(=O)NCc1ccc(F)cc1F)c1cc(Cl)c(O)c(Cl)c1 [Example 28, 4-(3,5-dichloro-4-hydroxybenzamido)-N-(2,4-difluorobenzyl)thiazole-5-carboxamide] | 1000 to 10000 |
| O=C(Nc1ncsc1C(=O)NC1(c2ccc(F)cc2)CC1)c1cc(Cl)c(O)c(Cl)c1 [Example 29, 4-(3,5-dichloro-4-hydroxybenzamido)-N-(1-(4-fluorophenyl)cyclopropyl)thiazole-5-carboxamide] | 100 to 500 |
| O=C(Nc1ncsc1C(=O)NCC1CCC(F)(F)CC1)c1cc(Cl)c(O)c(Cl)c1 [Example 30, 4-(3,5-dichloro-4-hydroxybenzamido)-N-((4,4-difluorocyclohexyl)methyl) thiazole-5-carboxamide] | 500 to 1000 |
| Cc1nsc(NC(=O)c2cc(Cl)c(O)c(Cl)c2)c1C(=O)NCc1ccccc1F [Example 31, 5-(3,5-dichloro-4-hydroxybenzamido)-N-(2-fluorobenzyl)-3-methylisothiazole-4-carboxamide] | 100 to 500 |
| O=C(Nc1scnc1C(=O)NCc1ccccc1OC(F)(F)F)c1cc(Cl)c(O)c(Cl)c1 [Example 32, 5-(3,5-dichloro-4-hydroxybenzamido)-N-(2-(trifluoromethoxy)benzyl)thiazole-4-carboxamide] | ≤ 100 |
| O=C(Nc1scnc1C(=O)NCc1ccccc1F)c1cc(Cl)c(O)c(Cl)c1 [Example 33, 5-(3,5-dichloro-4-hydroxybenzamido)-N-(2-fluorobenzyl)thiazole-4-carboxamide] | 100 to 500 |
| O=C(Nc1scnc1C(=O)NCc1cccc(F)c1)c1cc(Cl)c(O)c(Cl)c1 [Example 34, 5-(3,5-dichloro-4-hydroxybenzamido)-N-(3-fluorobenzyl)thiazole-4-carboxamide] | ≤ 100 |
| COc1ccccc1CCNC(=O)c1sccc1NC(=O)c1cc(Cl)c(O)c(Cl)c1 [Example 35, 3-(3,5-dichloro-4-hydroxybenzamido)-N-(2-methoxyphenethyl)thiophene-2-carboxamide] | ≤ 100 |
| COc1ccccc1CCn1cnc2cccc(NC(=O)c3cc(Cl)c(O)c(Cl)c3)c2c1=O [Example 36, 3,5-dichloro-4-hydroxy-N-(3-(2-methoxyphenethyl)-4-oxo-3,4-dihydroquinazolin-5-yl)benzamide] | 100 to 500 |
| O=C(Nc1cc(Cl)sc1C(=O)NCc1ccccc1OC(F)(F)F)c1cc(Cl)c(O)c(Cl)c1 [Example 37, 5-chloro-3-(3,5-dichloro-4-hydroxybenzamido)-N-(2-(trifluoromethoxy)benzyl) thiophene-2-carboxamide] | ≤ 100 |
| O=C(Nc1sc(Cl)cc1C(=O)NCCc1ccccc1OC(F)(F)F)c1cc(Cl)c(O)c(Cl)c1 [Example 38, 5-chloro-2-(3,5-dichloro-4-hydroxybenzamido)-N-(2-(trifluoromethoxy)phenethyl) thiophene-3-carboxamide] | 100 to 500 |
| O=C(Nc1cccc2ncn(Cc3nncs3)c(=O)c12)c1cc(Cl)c(O)c(Cl)c1 [Example 39, N-(3-((1,3,4-thiadiazol-2-yl)methyl)-4-oxo-3,4-dihydroquinazolin-5-yl)-3,5-dichloro-4-hydroxybenzamide] | 1000 to 10000 |
| O=C(Nc1cccc2ncn(Cc3cccc(C(F)(F)F)c3)c(=O)c12)c1cc(Cl)c(O)c(Cl)n1 [Example 40, 4,6-dichloro-5-hydroxy-N-(4-oxo-3-(3-(trifluoromethyl)benzyl)-3,4-dihydroquinazolin-5-yl)picolinamide] | 100 to 500 |

| SMILES | IC50 [nM] |
| --- | --- |
| C[C@@H](c1cccc(F)c1)n1cnc2cccc(NC(=O)c3cc(Cl)c(O)c(Cl)n3)c2c1=O [Example 41, 4,6-dichloro-N-{3-[(1S)-1-(3-fluorophenyl)ethyl]-4-oxo-3,4-dihydroquinazolin-5-yl}-5-hydroxypyridine-2-carboxamide] | ≤ 100 |
| O=C(Nc1cccc2ncn(Cc3ccc(F)cc3)c(=O)c12)c1cc(Cl)c(O)c(Cl)n1 [Example 42, 4,6-dichloro-N-{3-[(4-fluorophenyl)methyl]-4-oxo-3,4-dihydroquinazolin-5-yl}-5-hydroxypyridine-2-carboxamide] | 100 to 500 |
| O=C(Nc1cccc2ncn(Cc3ccccc3C(F)(F)F)c(=O)c12)c1cc(Cl)c(O)c(Cl)n1 [Example 43, 4,6-dichloro-5-hydroxy-N-(4-oxo-3-(2-(trifluoromethyl)benzyl)-3,4-dihydroquinazolin-5-yl)picolinamide] | ≤ 100 |
| O=C(Nc1cccc2ncn(Cc3ccccc3F)c(=O)c12)c1cc(Cl)c(O)c(Cl)n1 [Example 44, 4,6-dichloro-N-(3-(2-fluorobenzyl)-4-oxo-3,4-dihydroquinazolin-5-yl)-5-hydroxypicolinamide] | ≤ 100 |
| CN1CCN(c2ccc(Cn3cnc4cccc(NC(=O)c5cc(Cl)c(O)c(Cl)c5)c4c3=O)cc2)CC1 [Example 45, 3,5-dichloro-4-hydroxy-N-(3-(4-(4-methylpiperazin-1-yl)benzyl)-4-oxo-3,4-dihydroquinazolin-5-yl)benzamide] | 1000 to 10000 |
| C[C@H](c1cccc(F)c1)n1cnc2cccc(NC(=O)c3cc(Cl)c(O)c(Cl)c3)c2c1=O [Example 47, (R)-3,5-dichloro-N-(3-(1-(3-fluorophenyl)ethyl)-4-oxo-3,4-dihydroquinazolin-5-yl)-4-hydroxybenzamide] | ≤ 100 |
| N#Cc1cccc(Cn2cnc3cccc(NC(=O)c4cc(Cl)c(O)c(Cl)c4)c3c2=O)c1 [Example 48, 3,5-dichloro-N-(3-(3-cyanobenzyl)-4-oxo-3,4-dihydroquinazolin-5-yl)-4-hydroxybenzamide] | 100 to 500 |
| O=C(Nc1cccc2ncn(Cc3cccc(OC(F)(F)F)c3)c(=O)c12)c1cc(Cl)c(O)c(Cl)n1 [Example 49, 4,6-dichloro-5-hydroxy-N-(4-oxo-3-(3-(trifluoromethoxy)benzyl)-3,4-dihydroquinazolin-5-yl)picolinamide] | 100 to 500 |
| O=C(Nc1cccc2ncn(Cc3ccc(OC(F)(F)F)cc3)c(=O)c12)c1cc(Cl)c(O)c(Cl)n1 [Example 50, 4,6-dichloro-5-hydroxy-N-(4-oxo-3-(4-(trifluoromethoxy)benzyl)-3,4-dihydroquinazolin-5-yl)picolinamide] | 100 to 500 |
| CS(=O)(=O)c1ccccc1Cn1cnc2cccc(NC(=O)c3cc(Cl)c(O)c(Cl)c3)c2c1=O [Example 51, 3,5-dichloro-4-hydroxy-N-(3-(2-(methylsulfonyl)benzyl)-4-oxo-3,4-dihydroquinazolin-5-yl)benzamide.] | 100 to 500 |
| CC(C)(C)n1ccc(Cn2cnc3cccc(NC(=O)c4cc(Cl)c(O)c(Cl)c4)c3c2=O)n1 [Example 52, N-(3-((1-(tert-butyl)-1H-pyrazol-3-yl)methyl)-4-oxo-3,4-dihydroquinazolin-5-yl)-3,5-dichloro-4-hydroxybenzamide] | 500 to 1000 |
| N#Cc1ccccc1Cn1cnc2cccc(NC(=O)c3cc(Cl)c(O)c(Cl)c3)c2c1=O [Example 53, 3,5-dichloro-N-(3-(2-cyanobenzyl)-4-oxo-3,4-dihydroquinazolin-5-yl)-4-hydroxybenzamide] | ≤ 100 |
| O=C(Nc1cccc2ncnc(NCc3ccccc3OC(F)F)c12)c1cc(Cl)c(O)c(Cl)c1 [Example 54, 3,5-dichloro-N-[4-({[2-(difluoromethoxy)phenyl]methyl}amino)quinazolin-5-yl]-4-hydroxybenzamide] | 1000 to 10000 |
| Cn1ccc(Cn2cnc3cccc(NC(=O)c4cc(Cl)c(O)c(Cl)c4)c3c2=O)n1 [Example 56, 3,5-dichloro-4-hydroxy-N-{3-[(1-methyl-1H-pyrazol-3-yl)methyl]-4-oxo-3,4-dihydroquinazolin-5-yl}benzamide] | 500 to 1000 |
| CC(C)(C)CCn1cnc2cccc(NC(=O)c3cc(Cl)c(O)c(Cl)c3)c2c1=O [Example 57, 3,5-dichloro-N-(3-(3,3-dimethylbutyl)-4-oxo-3,4-dihydroquinazolin-5-yl)-4-hydroxybenzamide] | 100 to 500 |
